Assay results reported in patent publication US20150118221A1, “COMPOSITIONS AND METHODS FOR TREATING CARDIAC HYPERTROPHY” (THE JOHNS HOPKINS UNIVERSITY, priority 2012, published 2015).
“Also recorded” adds a separate entry of the source.

Legend:
apoE−/− mice [1] = test: M-mode echocardiography (fractional shortening, LV mass, wall thickness) in apoE−/− mice on high fat and cholesterol diet; type: in vivo, mouse
Method: Apoliporotein E-deficient (ApoE (−/−), male aged 11 weeks were purchased from the Jackson Laboratory, Bar Harbor, Me. At the age of 12 weeks, the Apo E(−/−) mice were started on a high fat and high cholesterol diet (HFHC) consisting of 20% fat, and 1.25% cholesterol (D12108C, Research Diet Inc., New Brunswick, N.J.) for 20 to 36 weeks with and without treatment with D-PDMP (5 mg/kg, 10 mg/kg) and compared to control fed only chow diet and placebo mice fed HFHC+Vehicle (composed of 5% Tween-80 in phosphate buffered saline). Diet was rationed once a week to estimate the weekly growth rate and food intake. Physiological studies were performed around the age of 12, 20 and 36 weeks. Blood was drawn to prepare serum and heart tissues were harvested and studied at molecular and histopathological level. Tissues were harvested at 12, 20 and 36 weeks of age.
Animals were subject to physiological measurements, e.g., weight, blood pressure, ultra sound to measure fractional shortening (FS), left ventricular mass (LVM), heart weight to tibia length ratio, heart anatomy etc. A group of mice (N=5) were euthanized to obtain base line values for aorta and blood samples were collected. The rest of the mice were divided in to several groups. These were: Placebo (mice fed vehicle only (5% Tween-80 in phosphate buffered saline), 5 mpk D-PDMP solubilized in vehicle and 10 mpk D-PDMP solubilized in vehicle). Placebo and D-PDMP was delivered daily by oral gavage. The physiological measurements were repeated at 20 weeks and 36 week interval and then the mice were euthanized by asphyxia. This protocol was approved by the committee for research on animals at the Johns Hopkins University.
(§1) Trans-thoracic echocardiography was performed in conscious mice using the 2100 Visualsonic ultrasound device (Toronto, Ontario, Canada), and the Sequoia Acuson C256 (Malvern, Pa.) system, equipped with a 40 MHz and 15 MHz linear transducer, respectively. M-mode echocardiogram was obtained in the parasternal short axes view of the left ventricle (LV) at the level of the papillary muscles and at sweep speed of 200 mm/sec.
(§2) LV mass (mg): 1.055[(IVSD+LVEDD+PWTED)^3−(LVEDD)^3],

apoE−/− mice [2] = test: Blood pressure, CODA tail cuff system; type: in vivo, mouse
Method: (§3) Aortic pulse wave velocity (PWV) was measured with mice placed supine under anesthesia with 1.5% isoflurane. An ECG-triggered, 2-mm, 10-MHz Doppler probe was used to measure blood flow at the thoracic and abdominal aorta. PWV was calculated by the thoracic-abdominal distance divided by the pulse transit time between the thoracic and abdominal measurement sites. Blood pressure was acquired using the CODA tail cuff system (Kent Scientific Co, USA) to measure systolic and diastolic pressure. Estimated the effect of mean pressure (MP(mmHg) on PWV (m/sec) was calculated using the following equation: PWVc=0.0006(MP)^2-0.0564MP+3.9711.

apoE−/− mice [3] = test: Aortic pulse wave velocity (PWV), arterial stiffness; type: in vivo, mouse; conditions: 10 mpk, compared to 5 mpk D-PDMP and placebo
Method: as §3

apoE−/− mice [4] = test: Histology of aorta and heart tissue (wall thickening, fibrosis, plaque accumulation); type: in vivo, mouse; conditions: FIG. 5
Description: H&E, Masson's trichrome stained aorta and heart tissue was used for histological analysis for cardiovascular wall thickening and plaque accumulation.

[5] = system: C57Bl-6 mice subject to trans-aortic constriction; test: M-mode echocardiography after trans-aortic constriction (TAC); type: in vivo, mouse; conditions: D-PDMP fed for a week before surgery, vs sham
Method: Normal male mice (C57B1-6), 11 weeks old, were also purchased from the Jackson Laboratory, Bar Harbor, Me.). After having measured the basal physiologic parameters such as blood pressure, weight, and ultra sound measurements, the 9 mice were divided as follows. Six mice were given 100 μL of vehicle (5% Tween-80 in phosphate—buffered saline) by oral gavage. The other three mice were fed 10 mpk of D-PDMP solubilized in vehicle. This procedure was continued for 7 days. Next, 3 mice in mice fed vehicle group and 3 mice fed D-PDMP were subject to trans-aortic constriction (Cingolani et al., 109 CIRC. RES. 00-00 (2011). At one week, two week and six weeks post-surgery, the mice were subjected to M mode ultrasound analysis. Finally, blood was drawn, and the animals were euthanized. The heart was excised, sliced in halves and its anatomy photographed.
as §1, §2

[6] = system: lactosylceramide synthase; test: Lactosylceramide synthase activity in heart tissue of apoE−/− mice; type: in vivo, mouse; conditions: 5 mpk and 10 mpk, 20 weeks and 36 weeks
Method: (§4) Approximately 10 mg of heart tissue were homogenized in Tris buffer (pH 7.8) and centrifuged at 10,000 rpm for 10 min. The supernatant was used as a source for enzyme. [^3H]UDP-Gal (American Radiolabled company, St Louis, Mo.) served as the nucleotide sugar donor in LacCer synthase assay and [^3H]UDP-Glc served as the nucleotide sugar donor in GlcCer synthase assay. The details of these assays have been described previously. See Chatterjee, S., 311 METHODS IN ENZYMOLOGY 73-81 (2000). All assays were conducted in triplicate from 3 to 5 aorta samples from mice in each group.

[7] = molecular target: T1, glucosylceramide synthase (Mus musculus, UniProt O88693); test: Glucosylceramide synthase activity in heart tissue of apoE−/− mice; type: in vivo; conditions: 5 mpk and 10 mpk, 20 weeks and 36 weeks
T1 sequence (O88693 1-394): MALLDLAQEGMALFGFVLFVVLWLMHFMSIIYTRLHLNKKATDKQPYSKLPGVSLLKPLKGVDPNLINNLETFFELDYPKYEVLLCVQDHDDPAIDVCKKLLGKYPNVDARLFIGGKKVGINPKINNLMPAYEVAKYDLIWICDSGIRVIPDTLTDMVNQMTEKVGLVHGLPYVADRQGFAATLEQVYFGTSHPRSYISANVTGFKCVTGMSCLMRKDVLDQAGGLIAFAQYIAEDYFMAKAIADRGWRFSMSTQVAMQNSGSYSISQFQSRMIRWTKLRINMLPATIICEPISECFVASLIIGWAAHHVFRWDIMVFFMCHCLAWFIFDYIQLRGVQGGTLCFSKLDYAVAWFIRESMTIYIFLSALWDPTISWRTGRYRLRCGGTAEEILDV
Method: as §4

glycosphingolipids [8] = test: HPLC analysis of glycosphingolipid levels in heart tissue, apoE−/− mice; type: in vivo, mouse
Method: (§5) Approximately 10 mg of heart tissue was homogenized in chloroform-methanol (2:1, v/v) and lipids were extracted. Bligh et al., 37.8 CAN. J. BIOCHEM. AND PHYSIOL. 911-17 (1959). The total lipid extracts were dried in nitrogen and subject to deacylation using sphingosine ceramide N-deacylation.

glycosphingolipids [9] = test: HPLC analysis of glycosphingolipid levels in heart tissue, TAC mice; type: in vivo, mouse; conditions: mice subject to trans-aortic constriction
Method: as §5

TGFβ = test: Western blot of TGFβ in left ventricular heart homogenates; type: in vivo, mouse; conditions: 5 mpk and 10 mpk
Method: FIG. 16. TGFβ over expression in hypertrophic mouse heart is mitigated by the use of D-PDMP. Left ventricular heart homogenates were prepared from placebo, 5 mpk and 10 mpk treated mouse hearts. Western blot analysis was done using anti TGFβ antibody. Expression levels of GAPDH were used to normalize the protein expression. Expression levels were quantified by using Image J v.1.45s (NIH, USA) software. (a) Western immunoblot of TGF-β. (b) Corresponding densitomeric scan.

oxidized -LDL = test: Serum level of oxidized LDL in apoE−/− mice fed western diet; type: in vivo, mouse
[10] = system: hypertrophic marker, antioxidant and collagen gene mRNA; conditions: 10 mpk, left ventricular tissue
[11] = cited from earlier work
p44MAPK = test: Western immunoblot of p44MAPK in heart tissue
apoE−/− mice [12] = test: Ultrasound imaging of aortic intima media thickening (AoIMT); conditions: for aortic intima media thickening (AoIMT): 16 and 20 week old mice
[13] = system: lactosylceramide synthase; test: Lactosylceramide synthase activity in aorta tissue of D-PDMP-fed apoE−/− mice; conditions: hyperlipidemic diet; for decrease of LCS activity as compared to hyperlipidemic mouse aorta: 20 week old apoE−/− mice
[14] = molecular target: T1, glucosylceramide synthase; test: Glucosylceramide synthase activity in aorta tissue of D-PDMP-fed apoE−/− mice; conditions: 5 and 10 mpk, hyperlipidemic diet, HCl
[15] = HCHF fed apoE−/− mice, to base line levels
[16] = 20 Weeks, 10MPK D-PDMP + Fat, n = 5
[17] = TAC and Apo E−/− mice (high fat and cholesterol diet)

## CCCCCCCCCC(=O)N[C@H](CN1CCOCC1)[C@H](O)c1ccccc1.Cl [D-PDMP, D-threo-1-Phenyl-2-decanoylamino-3-morpholino-1-propanol HCl]
apoE−/− mice [1]; 5-MPK D-PDMP + fat, up to 20 weeks of age
  IVSD and PWTED wall thickness at end diastolic phase: thicker
apoE−/− mice [1]; 5 MPK + fat, 16 and 20 weeks of age
  Fractional shortening (FS %) of left ventricle: significant decline
apoE−/− mice [1]; 10 MPK + fat, 16 and 20 weeks
  Fractional shortening (FS %) vs baseline and control: did not significantly differ from the baseline and control
apoE−/− mice [1]; 10 MPK + fat, up to 20 weeks of age
  IVSD and PWTED wall thickness at end diastolic phase (hypertrophied wall): non hypertrophied
apoE−/− mice [1]; 20 Weeks, 10MPK D-PDMP + Fat, n = 5, Mean±SEM
  Fractional Shortening (%): 61.77 ± 1.69%
apoE−/− mice [1]; [15]
  fractional shortening: dose-dependent reversal
  left ventricular mass: dose-dependent reversal
apoE−/− mice [1]; hyperlipidemic diet, dose dependent manner
  heart hypertrophy and dysfunction (M mode ultrasound): complete protection
apoE−/− mice [2]; [16]
  Blood Pressure* (mmHg), lower value (marked ^ in Control row): 75.8 ± 11.55 mmHg
  Blood Pressure* (mmHg), upper value (marked ** in Control row): 102.98 ± 12.34 mmHg
apoE−/− mice [2]; daily oral gavage, apoE−/− mice on high fat and cholesterol diet
  blood pressure: reversed the blood pressure to normal level
apoE−/− mice [3]
  arterial stiffness (PWV): reduces
apoE−/− mice [4]
  fibrosis: reduced
  intimal wall thickness: reduced
  plaque accumulation: reduced
[5]
  fractional shortening: completely reversed
  left ventricular mass: completely reversed
[6]
  activity of lactosylceramide synthase in heart tissue: dose-dependently decreased
[7]
  activity of glucosylceramide synthase in heart tissue: dose-dependently decreased
Glycosphingolipids [8]
  mass of glycosphingolipids in heart tissue: inhibits
Glycosphingolipids [9]
  level of glycosphingolipids: decreases
TGFβ
  TGFβ over expression in hypertrophic mouse heart: mitigated
Oxidized -LDL
  increase of serum level of oxidized -LDL (about 4-fold on western diet): mitigated
[10]; TAC and Apo E−/− mice
  Catalase mRNA expression level: induces
  SOD1 mRNA expression level: induces
  SOD2 mRNA expression level: induces
[10]; [17]
  ANP mRNA expression level: blunted
  BNP mRNA expression level: blunted
  βMHC mRNA expression level: blunted
[10]; TAC mice
  mRNA levels of collagen type II and III genes: decreased
[11]
  solubility in water: soluble in water
p44MAPK; 10 mpk, vs placebo
  level of phosphorylated p44MAPK in heart tissue: decrease
p44MAPK; both animal models (apoE−/− and TAC)
  phosphorylation of p44MAPK in heart tissue: mitigated
apoE−/− mice [12]; 5 MPK + fat
  aortic intima media thickening (AoIMT): progressively increased
apoE−/− mice [12]; 10 MPK + fat
  aortic intima media thickening (AoIMT): did not change
apoE−/− mice [12]; dose not stated
  increase in aortic intima media thickening (IMT) caused by hyperlipidemic diet: reversed
[13]; 5 and 10 mpk, apoE−/− mice, HCl
  activity of lactosylceramide synthase in aorta tissue: dose-dependently decreased; also recorded: completely prevented
[13]; 5 mpk D-PDMP
  decrease of LCS activity as compared to hyperlipidemic mouse aorta: ~52%
[13]; 10 mpk D-PDMP
  decrease of LCS activity as compared to hyperlipidemic mouse aorta: ~32%
[14]
  activity of glucosylceramide synthase in aorta tissue: dose-dependent decrease in glucosylceramide synthase activity was not observed; also recorded: completely prevented; also recorded: decreased

## CCCCN1C[C@H](O)[C@@H](O)[C@H](O)[C@H]1CO [NB-DNJ, 1,5-(butylimino)-1,5-dideoxy-D-glucitol]
[11]
  solubility in water: soluble in water
